Experimental data as given in patent publication US9988400B2 (Genentech, Inc., priority 2013, dated 2018).

Target: T1, HEK cells stably transfected with tetracycline inducible hNR1 and hNR2A (Homo sapiens, UniProt Q05586+Q12879)
T1 construct: expressed in transfected cells; host or cells: HEK cells, stably transfected, tetracycline/doxycycline inducible
Assay: Assay 1: Cell-Based Assay, cytosolic calcium response to positive allosteric modulators (with 30 μM glycine and 300 nM L-glutamate, EC30)
Conditions: for EC50: cytosolic calcium response, with 30 μM glycine and 300 nM L-glutamate (EC30), — = no plateau was reached; for Max %: responses scaled relative to 100 μM L-glutamate maximal response (100%) and 0 μM L-glutamate (0%)
Method in brief: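 Cells induced 24 h with 7.5 μg mL^−1 doxycycline plus 500 μM (+)-ketamine, loaded 60 min at 37 °C with calcium dye in Mg-free HBSS (1.8 mM Ca, probenecid, 10 μM (+)-ketamine, pH 7.15). Peak RFU over 5 min after compound addition, scaled to 100 μM L-glutamate (100%) and 0 μM (0%); four-parameter Hill fit for EC50, max % if no plateau.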

T1 sequence (Q12879 23-1464, other chains not shown): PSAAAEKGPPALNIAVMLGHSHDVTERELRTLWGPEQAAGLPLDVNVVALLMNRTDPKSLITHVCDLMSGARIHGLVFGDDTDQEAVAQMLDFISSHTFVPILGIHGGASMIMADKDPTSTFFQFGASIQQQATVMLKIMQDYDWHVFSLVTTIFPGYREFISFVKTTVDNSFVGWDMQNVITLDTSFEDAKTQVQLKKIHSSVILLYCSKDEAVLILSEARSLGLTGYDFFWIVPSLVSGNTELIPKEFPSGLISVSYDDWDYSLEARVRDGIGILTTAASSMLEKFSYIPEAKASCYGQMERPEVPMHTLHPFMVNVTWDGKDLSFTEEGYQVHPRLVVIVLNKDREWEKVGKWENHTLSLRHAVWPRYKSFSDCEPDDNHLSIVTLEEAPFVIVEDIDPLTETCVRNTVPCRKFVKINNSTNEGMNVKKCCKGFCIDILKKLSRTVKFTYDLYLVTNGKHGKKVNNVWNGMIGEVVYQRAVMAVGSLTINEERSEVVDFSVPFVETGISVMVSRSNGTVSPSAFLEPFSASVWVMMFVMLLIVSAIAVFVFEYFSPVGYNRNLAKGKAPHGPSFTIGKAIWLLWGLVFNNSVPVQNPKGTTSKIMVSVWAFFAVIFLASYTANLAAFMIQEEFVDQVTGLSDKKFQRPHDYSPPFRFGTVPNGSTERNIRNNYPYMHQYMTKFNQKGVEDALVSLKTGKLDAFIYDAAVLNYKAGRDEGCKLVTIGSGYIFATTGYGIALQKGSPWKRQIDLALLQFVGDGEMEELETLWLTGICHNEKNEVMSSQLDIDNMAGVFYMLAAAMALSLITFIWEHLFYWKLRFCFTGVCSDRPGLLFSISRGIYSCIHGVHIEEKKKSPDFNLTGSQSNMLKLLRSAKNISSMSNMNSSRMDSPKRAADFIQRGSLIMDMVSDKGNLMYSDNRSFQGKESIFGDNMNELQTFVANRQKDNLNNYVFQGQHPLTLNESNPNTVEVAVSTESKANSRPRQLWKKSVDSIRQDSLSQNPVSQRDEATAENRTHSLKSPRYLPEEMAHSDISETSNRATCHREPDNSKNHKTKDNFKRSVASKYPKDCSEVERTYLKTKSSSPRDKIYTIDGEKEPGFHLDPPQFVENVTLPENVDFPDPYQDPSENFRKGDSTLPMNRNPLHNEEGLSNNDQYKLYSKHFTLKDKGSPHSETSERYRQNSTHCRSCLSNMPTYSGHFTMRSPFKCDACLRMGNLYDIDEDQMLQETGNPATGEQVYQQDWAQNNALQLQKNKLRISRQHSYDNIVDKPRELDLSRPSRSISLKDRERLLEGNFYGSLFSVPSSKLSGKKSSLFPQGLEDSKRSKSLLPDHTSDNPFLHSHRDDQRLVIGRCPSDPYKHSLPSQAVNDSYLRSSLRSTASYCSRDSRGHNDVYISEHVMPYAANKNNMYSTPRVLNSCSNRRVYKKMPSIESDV

EC50 (Table 2) [nM]	Max % (Table 2) [%]	EC50 (Table 3) [nM]	SMILES
1400	125	–	CCN(Cc1cc(=O)n2c(CCC(N)=O)c(C)sc2n1)c1ccc(F)cc1 [Example 13.6, 3-(7-[[ethyl(4-fluorophenyl)amino]methyl]-2-methyl-5-oxo-5H-[1,3]thiazolo[3,2-a]pyrimidin-3-yl)propanamide]
–	–	292	CCN(Cc1cc(=O)n2c(CC(=O)NC)c(C)sc2n1)c1ccc(F)cc1 [compound 25, 2-[7-[(N-ethyl-4-fluoro-anilino)methyl]-2-methyl-5-oxo-thiazolo[3,2-a]pyrimidin-3-yl]-N-methyl-acetamide]
–	–	9990	O=c1cc(Cn2nc(C(F)(F)F)cc2Cl)nc2sc(C(F)(F)F)c(C3CC3)n12 [compound 184, 7-[[5-chloro-3-(trifluoromethyl)pyrazol-1-yl]methyl]-3-cyclopropyl-2-(trifluoromethyl)thiazolo[3,2-a]pyrimidin-5-one]
214	139	–	CCN(Cc1cc(=O)n2c(-c3ccco3)c(C)sc2n1)c1ccc(F)cc1 [Example 5.45, 7-((ethyl(4-fluorophenyl)amino)methyl)-3-(furan-2-yl)-2-methyl-5H-thiazolo[3,2-a]pyrimidin-5-one]
–	–	9730	CNC(=O)Cc1c(C)sc2nc(Cc3cccc(Cl)c3F)cc(=O)n12 [compound 7, 2-[7-[(3-chloro-2-fluoro-phenyl)methyl]-2-methyl-5-oxo-thiazolo[3,2-a]pyrimidin-3-yl]-N-methyl-acetamide]
–	50.2	–	Cc1sc2nc(COc3ccc(F)cc3)cc(=O)n2c1C1(O)COC1 [Example 4.32, 7-((4-fluorophenoxy)methyl)-3-(3-hydroxyoxetan-3-yl)-2-methyl-5H-thiazolo[3,2-a]pyrimidin-5-one]
723	166	–	CCN(Cc1cc(=O)n2c(C(O)CCO)c(C)sc2n1)c1ccc(F)cc1 (stereo not shown) [Example 12.1, 3-(1,3-dihydroxypropyl)-7-[(N-ethyl-4-fluoro-anilino)methyl]-2-methyl-thiazolo[3,2-a]pyrimidin-5-one]
–	–	2590	CCNC(=O)c1c(C)sc2nc(Cn3nc(C4CC4)cc3C(F)(F)F)cc(=O)n12 [compound 123, 7-[[3-cyclopropyl-5-(trifluoromethyl)pyrazol-1-yl]methyl]-N-ethyl-2-methyl-5-oxo-thiazolo[3,2-a]pyrimidine-3-carboxamide]
–	74	–	Cc1sc2nc(Cc3ccnc(C#N)c3)cc(=O)n2c1[C@@H]1C[C@H]1CO (relative stereo) [Example 20.12, 4-((3-(trans-2-(hydroxymethyl)cyclopropyl)-2-methyl-5-oxo-5H-thiazolo[3,2-a]pyrimidin-7-yl)methyl)picolinonitrile]
–	–	1670	CCNC(=O)c1c(OCC(F)(F)F)sc2nc(Cn3nc(C(F)(F)F)cc3Cl)cc(=O)n12 [compound 174, 7-[[5-chloro-3-(trifluoromethyl)pyrazol-1-yl]methyl]-N-ethyl-5-oxo-2-(2,2,2-trifluoroethoxy)thiazolo[3,2-a]pyrimidine-3-carboxamide]
–	–	9950	CC1CC1c1c(C(F)(F)F)sc2nc(Cc3cccc(C#N)c3F)cc(=O)n12 (stereo not shown) [compound 253, 2-fluoro-3-[[3-[2-methylcyclopropyl]-5-oxo-2-(trifluoromethyl)thiazolo[3,2-a]pyrimidin-7-yl]methyl]benzonitrile]
731	142	–	CCN(Cc1cc(=O)n2c(-c3cncc(F)c3)c(C)sc2n1)c1ccc(F)cc1 [Example 5.24, 7-[(N-ethyl-4-fluoro-anilino)methyl]-3-(5-fluoro-3-pyridyl)-2-methyl-thiazolo[3,2-a]pyrimidin-5-one]
–	–	627	Cc1sc2nc(Cn3nc(C(F)(F)F)cc3C3CC3)cc(=O)n2c1C(=O)NCC(F)(F)F [compound 57, 7-[[5-cyclopropyl-3-(trifluoromethyl)pyrazol-1-yl]methyl]-2-methyl-5-oxo-N-(2,2,2-trifluoroethyl)thiazolo[3,2-a]pyrimidine-3-carboxamide]
–	–	1030	CCNC(=O)c1c(OC)sc2nc(Cc3cccc(C(F)(F)F)c3F)cc(=O)n12 [compound 91, N-Ethyl-7-[[2-fluoro-3-(trifluoromethyl)phenyl]methyl]-2-methoxy-5-oxo-thiazolo[3,2-a]pyrimidine-3-carboxamide]
–	–	2690	CC(=O)c1c(C(F)(F)F)sc2nc(Cn3nc(C(F)(F)F)cc3Cl)cc(=O)n12 [compound 166, 3-acetyl-7-[[5-chloro-3-(trifluoromethyl)pyrazol-1-yl]methyl]-2-(trifluoromethyl)thiazolo[3,2-a]pyrimidin-5-one]
345	165	–	CCN(Cc1cc(=O)n2c(CSC)c(C)sc2n1)c1ccc(F)cc1 [Example 10.25, 7-((ethyl(4-fluorophenyl)amino)methyl)-2-methyl-3-((methylthio)methyl)-5H-thiazolo[3,2-a]pyrimidin-5-one]

EC50 (Table 2) [nM]	Max % (Table 2) [%]	EC50 (Table 3) [nM]	SMILES
40800	–	–	Cc1sc2nc(Cc3cccc(C(F)(F)F)c3F)cc(=O)n2c1C(C)O (single isomer, unassigned; enantiomer 2) [Example 27.12, 7-(2-fluoro-3-(trifluoromethyl)benzyl)-3-(1-hydroxyethyl)-2-methyl-5H-thiazolo[3,2-a]pyrimidin-5-one (enantiomer 2)]
–	–	27600	O=c1cc(Cn2nc(Cl)cc2C(F)(F)F)nc2sc(C(F)(F)F)c(-c3cncnc3)n12 [compound 172, 7-[[3-chloro-5-(trifluoromethyl)pyrazol-1-yl]methyl]-3-pyrimidin-5-yl-2-(trifluoromethyl)thiazolo[3,2-a]pyrimidin-5-one]
11000	112	–	CNC(=O)c1c(C)sc2nc(Cc3cccc(Cl)c3F)cc(=O)n12 [Example 21.14, 7-[(3-chloro-2-fluoro-phenyl)methyl]-N,2-dimethyl-5-oxo-thiazolo[3,2-a]pyrimidine-3-carboxamide]
–	81.4	–	CCN(Cc1cc(=O)n2c3c(sc2n1)CCC3=O)c1ccc(F)cc1 [Example 8.7, 6-[(N-ethyl-4-fluoro-anilino)methyl]-2,3-dihydrocyclopenta[3,4]thiazolo[1,4-a]pyrimidine-1,8-dione]
2500	143	–	Cc1sc2nc(Cn3nc(C4CC4)cc3C(F)(F)F)cc(=O)n2c1[C@@H]1C[C@H]1CO (relative stereo) [Example 15.12, 7-((3-cyclopropyl-5-(trifluoromethyl)-1H-pyrazol-1-yl)methyl)-3-(trans-2-(hydroxymethyl)cyclopropyl)-2-methyl-5H-thiazolo[3,2-a]pyrimidin-5-one]
314	153	–	Cc1sc2nc(Cn3nc(C(F)(F)F)cc3C3CC3)c(F)c(=O)n2c1[C@@H]1C[C@H]1CO (relative stereo) [Example 15.20, 7-((5-cyclopropyl-3-(trifluoromethyl)-1H-pyrazol-1-yl)methyl)-6-fluoro-3-(trans-2-(hydroxymethyl)cyclopropyl)-2-methyl-5H-thiazolo[3,2-a]pyrimidin-5-one]
–	–	5840	CCc1sc2nc(Cn3nc(Cl)cc3C(F)(F)F)cc(=O)n2c1C(C)=O [compound 212, 3-acetyl-7-[[3-chloro-5-(trifluoromethyl)pyrazol-1-yl]methyl]-2-ethyl-thiazolo[3,2-a]pyrimidin-5-one]
–	–	682	CCNC(=O)c1c(OC)sc2nc(Cn3nc(C(F)(F)F)cc3Cl)cc(=O)n12 [compound 128, 7-[[5-chloro-3-(trifluoromethyl)pyrazol-1-yl]methyl]-N-ethyl-2-methoxy-5-oxo-thiazolo[3,2-a]pyrimidine-3-carboxamide]
–	–	9200	O=c1cc(Cn2nc(C(F)(F)F)cc2C2CC2)nc2sc3c(n12)C(CO)CC3 (stereo not shown) [compound 95]
18700	–	–	Cc1sc2nc(Cc3cccc(C#N)c3F)cc(=O)n2c1C(=O)NCC(F)(F)F [Example 25.1, 7-(3-cyano-2-fluorobenzyl)-2-methyl-5-oxo-N-(2,2,2-trifluoroethyl)-5H-thiazolo[3,2-a]pyrimidine-3-carboxamide]
–	73	–	Cc1sc2nc(COc3ccc(F)cc3)cc(=O)n2c1C(=O)NCCO [Example 1.11, 7-(4-Fluorophenoxymethyl)-N-(2-hydroxyethyl)-2-methyl-5-oxo-5H-[1,3]thiazolo[3,2-a]pyrimidine-3-carboxamide]
–	124	–	CCNC(=O)c1c(C)sc2nc(Cc3c(CC)ccc(F)c3F)cc(=O)n12 [Example 21.63, N-ethyl-7-(6-ethyl-2,3-difluorobenzyl)-2-methyl-5-oxo-5H-thiazolo[3,2-a]pyrimidine-3-carboxamide]
–	–	1720	C=C(CF)c1cccc(Cc2cc(=O)n3c(C(=O)NCC)c(C)sc3n2)c1F [compound 36, N-ethyl-7-[[2-fluoro-3-[1-(fluoromethyl)vinyl]phenyl]methyl]-2-methyl-5-oxo-thiazolo[3,2-a]pyrimidine-3-carboxamide]
–	45.6	–	CCNC(=O)c1c(C)sc2nc(Cc3cccc(C#N)c3Cl)cc(=O)n12 [Example 21.62, 7-(2-chloro-3-cyanobenzyl)-N-ethyl-2-methyl-5-oxo-5H-thiazolo[3,2-a]pyrimidine-3-carboxamide]
–	56.4	–	Cc1sc2nc(COc3ccc(F)cc3)cc(=O)n2c1C(=O)C1COC1 [Example 2.9, 7-((4-fluorophenoxy)methyl)-2-methyl-3-(oxetane-3-carbonyl)-5H-thiazolo[3,2-a]pyrimidin-5-one]
–	–	1690	Cc1sc2nc(Cn3nc(Cl)cc3C(F)(F)F)cc(=O)n2c1C(=O)NCC(F)(F)F [compound 66, 7-[[3-chloro-5-(trifluoromethyl)pyrazol-1-yl]methyl]-2-methyl-5-oxo-N-(2,2,2-trifluoroethyl)thiazolo[3,2-a]pyrimidine-3-carboxamide]
